From patent US11602570B2, “Compositions and systems for renal function determination” (MediBeacon Inc., priority 2017, dated 2023) come the findings set out here.

A short description of series [1]: Clinical study: plasma pharmacokinetics of MB-102 given intravenously to human patients. The series is classed as in vivo. The procedure: (§1) In a clinical study, 60 human patients were administered MB-102 ((2R,2′R)-2,2′-((3,6-diaminopyrazine-2,5-dicarbonyl)bis(azanediyl))bis(3-hydroxypropanoic acid)) prepared in Example 12) intravenously. Blood and urine were collected in addition to the methods and techniques disclosed herein. Standard pharmacokinetic data was collected and comparison was made between the methods and techniques disclosed herein to Omnipaque® (iohexol), a known contrast agent used for GFR determination.
Shown in FIGS. 3A to 3D are data collected from the 60 human patients tested with MB-102. Plasma pharmacokinetic data was collected and analyzed using methods known in the art and compared to the data measured using the methods and techniques disclosed herein.
FIGS. 3A to 3D illustrate a two compartment pharmacokinetic model for the elimination of MB-102. The model is consistent for patients regardless of their GFR values. FIG. 3A is for patients having normal kidney function having a measured GFR (mGFR) of 120 mL/min. FIG. 3B is for patients having a mGFR of 81 mL/min. FIG. 3C is for patients having a mGFR of 28 mL/min. FIG. 3D is for patients having a mGFR of 25 mL/min. The first compartment in the two compartment model is the vascular to tissue equilibrium while the second compartment illustrates renal excretion only. On average, the time for equilibration is about one hour, and is subject dependent.
Shown in FIG. 6 is the plasma concentration half-life of MB-102 for patients having either normal kidney function, stage 1 renal impairment, stage 2 renal impairment, stage 3 renal impairment, or stage 4 renal impairment.

Series [2] can be described thus: Stability testing of MB-102, HPLC evaluation. It counts as physicochemical. To be noted: 25° C. and 60% relative humidity. The procedure:
Samples of MB-102 were prepared and stored at 25° C. and 60% relative humidity for 24 months. HPLC evaluation of each sample was performed at various time points to assess the stability of the samples.

A short description of series [3]: Clinical study: 12 hour urine collection, amount recovered and degree of secondary metabolism. It counts as in vivo, human. The procedure: as §1
As part of the clinical 1 study for MB-102, urine was collected from patients for 12 hours to determine the amount recovered and degree of secondary metabolism. […] For patients having normal, stage 1 and stage 2 renal function, 12 hour collection time was sufficient for greater than 99% recovery of MB-102. In view of the pharmacokinetic data and the plasma half-life determination, less than complete collection is readily understood for patients having more serious renal function impairment.

Some results are limits rather than exact numbers.

Regarding `Nc1nc(C(=O)N[C@H](CO)C(=O)O)c(N)nc1C(=O)N[C@H](CO)C(=O)O` [MB-102, (2R,2′R)-2,2′-((3,6-diaminopyrazine-2,5-dicarbonyl)bis(azanediyl))bis(3-hydroxypropanoic acid)], in series [1] (human patients, intravenous, on average, subject dependent), the “time for equilibration (vascular to tissue equilibrium)” value is on record as “about one”. Besides, the average plasma half-life entry in series [1] (normal renal function group) is given as “two”. In series [1] (stage 3 renal impairment), this compound had a plasma half-life of 4 h. Also, the “Purity (HPLC)” value is reported as above 99% in series [2] (0 months); above 99% in series [2] (6 months); 98.9% in series [2] (12 months); 98.3% in series [2] (18 months); 97.8% in series [2] (24 months). Moreover, in series [3] (patients having a mGFR value below 60, 12 hours, likewise unmetabolized), the “MB-102 recovered from urine” value was “a lower percentage was recovered”. Also, in series [3] (patients having an eGFR greater than 60, after 12 hours), the “MB-102 recovered unmetabolized from urine” value is “greater than 99%”.
